System: T1, TcCAT-1
T1 construct: native, purified from wild ascocarps (Zarzadilla de Totana, Lorca, Murcia, Spain); large-subunit monofunctional heme catalase, Clade 2, L2 group
Experiment: H2O2 decomposition at […] nm
Type: biochemical, Terfezia claveryi
Conditions: 10 mM H2O2, 0.1 M sodium phosphate pH 7.0, room temperature

IC50 (text b58 prints 0.125 mM) [µM] | SMILES | IC50 [µM]
– | NO [hydroxylamine] | 0.1 ± 0.01
130 ± 20 | OCCS [2-mercaptoethanol] | –

— publication PMC6620010, “Purification and characterization of Terfezia claveryi TcCAT-1, a desert truffle catalase upregulated in mycorrhizal symbiosis” (PLoS ONE, 2019)
